Converted amounts (≈) assume the structure as drawn.
Legend:
C. jejuni strain H840 = experiment: MIC determination, liquid microdilution, C. jejuni; format: cell-based; conditions: Campylobacter jejuni, H840, 27 h, read-out: MIC C. jejuni
H. pylori strain 26695 = experiment: MIC determination, liquid microdilution, H. pylori; format: cell-based; conditions: Helicobacter pylori, 26695, 27 h, read-out: MIC H. pylori

| Structure (SMILES) | MIC (C. jejuni strain H840) [µM] | MIC (H. pylori strain 26695) [µM] |
| --- | --- | --- |
| O=C(Nc1ncc([N+](=O)[O-])s1)c1ccc([N+](=O)[O-])cc1 [Analogue 27, 4-Nitro-N-(5-nitrothiazol-2-yl)benzamide] | 13.6 (≈ 4 µg/mL) | 1.3 (≈ 0.383 µg/mL) |
| O=C(Nc1ncc([N+](=O)[O-])s1)c1ccc(-c2ccccc2)o1 [Analogue 65, N-(5-Nitrothiazol-2-yl)-5-phenylfuran-2-carboxamide] | 102 (≈ 32 µg/mL) | 2.4 (≈ 0.757 µg/mL) |
| O=C(Nc1ncc([N+](=O)[O-])s1)c1c(F)cccc1F [Analogue 11, 2,6-Difluoro-N-(5-nitrothiazol-2-yl)benzamide] | 14 (≈ 3.99 µg/mL) | 0.7 (≈ 0.2 µg/mL) |
| COc1cccc(C(=O)Nc2ncc([N+](=O)[O-])s2)c1 [Analogue 29, 3-Methoxy-N-(5-nitrothiazol-2-yl)benzamide] | 7.2 (≈ 2.01 µg/mL) | 1.3 (≈ 0.363 µg/mL) |
| O=C(Nc1ncc([N+](=O)[O-])s1)c1ccc(-c2cccc(Cl)c2)s1 [Analogue 81, 5-(3-Chlorophenyl)-N-(5-nitrothiazol-2-yl)thiophene-2-carboxamide] | 5.5 (≈ 2.01 µg/mL) | 0.7 (≈ 0.256 µg/mL) |
| O=C(Nc1ncc([N+](=O)[O-])s1)c1ccc(-c2ccccc2)s1 [Analogue 80, N-(5-Nitrothiazol-2-yl)-5-phenylthiophene-2-carboxamide] | 72.4 (≈ 24 µg/mL) | 1.5 (≈ 0.497 µg/mL) |
| O=C(Nc1ncc([N+](=O)[O-])s1)c1ccc(-c2ccoc2)o1 [Analogue 70, N-(5-Nitrothiazol-2-yl)-2,3′-bifuran-5-carboxamide] | 13.1 (≈ 4 µg/mL) | 1.6 (≈ 0.488 µg/mL) |
| COc1cc(C(F)(F)F)ccc1C(=O)Nc1ncc([N+](=O)[O-])s1 [Analogue 32, 2-Methoxy-N-(5-nitrothiazol-2-yl)-4-(trifluoromethyl)benzamide] | – | 0.9 (≈ 0.313 µg/mL) |
| O=C(Nc1ncc([N+](=O)[O-])s1)c1ccc(-c2cccc([N+](=O)[O-])c2)o1 [Analogue 69, 5-(3-Nitrophenyl)-N-(5-nitrothiazol-2-yl)furan-2-carboxamide] | 16.7 (≈ 6.02 µg/mL) | 6.9 (≈ 2.49 µg/mL) |
| O=C(Nc1ncc([N+](=O)[O-])s1)c1ccc(-c2ccsc2)o1 [Analogue 71, N-(5-Nitrothiazol-2-yl)-5-(thiophen-3-yl)furan-2-carboxamide] | 99.6 (≈ 32 µg/mL) | 6.2 (≈ 1.99 µg/mL) |
| N#Cc1ccc(C(=O)Nc2ncc([N+](=O)[O-])s2)cc1 [Analogue 21, 4-Cyano-N-(5-nitrothiazol-2-yl)benzamide] | 43.8 (≈ 12 µg/mL) | 9.1 (≈ 2.5 µg/mL) |
| CCCCCCCC(=O)Nc1ncc([N+](=O)[O-])s1 [Analogue 51, N-(5-Nitrothiazol-2-yl)octanamide] | 5.5 (≈ 1.49 µg/mL) | 1.4 (≈ 0.38 µg/mL) |
| O=C(/C=C/c1ccc(C(F)(F)F)cc1)Nc1ncc([N+](=O)[O-])s1 [Analogue 55, (E)-N-(5-Nitrothiazol-2-yl)-3-(4-(trifluoromethyl)phenyl)acrylamide] | 93.2 (≈ 32 µg/mL) | 0.5 (≈ 0.172 µg/mL) |
| O=C(Nc1ncc([N+](=O)[O-])s1)c1ccc(F)c([N+](=O)[O-])c1 [Analogue 37, 4-Fluoro-3-nitro-N-(5-nitrothiazol-2-yl)benzamide] | 51.2 (≈ 16 µg/mL) | 1.6 (≈ 0.5 µg/mL) |
| COc1cc([N+](=O)[O-])ccc1C(=O)Nc1ncc([N+](=O)[O-])s1 [Analogue 33, 2-Methoxy-4-nitro-N-(5-nitrothiazol-2-yl)benzamide] | 9.3 (≈ 3.02 µg/mL) | 0.6 (≈ 0.195 µg/mL) |
| O=C(Nc1ncc([N+](=O)[O-])s1)c1cc(Cl)sc1Cl [Analogue 75, 2,5-Dichloro-N-(5-nitrothiazol-2-yl)thiophene-3-carboxamide] | 2.3 (≈ 0.746 µg/mL) | 1.5 (≈ 0.486 µg/mL) |
| O=C(Nc1ncc([N+](=O)[O-])s1)c1c(F)cc(F)cc1F [Analogue 12, 2,4,6-Trifluoro-N-(5-nitrothiazol-2-yl)benzamide] | 9.9 (≈ 3 µg/mL) | 4.9 (≈ 1.49 µg/mL) |
| O=C(Nc1ncc([N+](=O)[O-])s1)c1ccc(C(F)(F)F)cc1[N+](=O)[O-] [Analogue 36, 2-Nitro-N-(5-nitrothiazol-2-yl)-4-(trifluoromethyl)benzamide] | 88.3 (≈ 32 µg/mL) | 8.3 (≈ 3.01 µg/mL) |
| O=C(CCc1ccccc1)Nc1ncc([N+](=O)[O-])s1 [Analogue 44, N-(5-Nitrothiazol-2-yl)-3-phenylpropanamide] | 1.8 (≈ 0.499 µg/mL) | 21.6 (≈ 5.99 µg/mL) |
| O=C(Nc1ncc([N+](=O)[O-])s1)c1cc(C(F)(F)F)ccc1Cl [Analogue 39, 2-Chloro-N-(5-nitrothiazol-2-yl)-5-(trifluoromethyl)benzamide] | 17.1 (≈ 6.01 µg/mL) | 1.1 (≈ 0.387 µg/mL) |
| O=C(Nc1ncc([N+](=O)[O-])s1)c1cc(F)c(F)cc1F [Analogue 14, 2,4,5-Trifluoro-N-(5-nitrothiazol-2-yl)benzamide] | 9.9 (≈ 3 µg/mL) | 0.8 (≈ 0.243 µg/mL) |

| Structure (SMILES) | MIC (C. jejuni strain H840) [µM] | MIC (H. pylori strain 26695) [µM] |
| --- | --- | --- |
| CC1=C(C(=O)Nc2ncc([N+](=O)[O-])s2)Cc2ccccc21 [Analogue 47, 3-Methyl-N-(5-nitrothiazol-2-yl)indene-2-carboxamide] | 26.5 (≈ 7.99 µg/mL) | 1.7 (≈ 0.512 µg/mL) |
| O=C(CCCc1ccccc1)Nc1ncc([N+](=O)[O-])s1 [Analogue 45, N-(5-Nitrothiazol-2-yl)-4-phenylbutanamide] | 1.3 (≈ 0.379 µg/mL) | 0.3 (≈ 0.0874 µg/mL) |
| O=C(Nc1ncc([N+](=O)[O-])s1)c1ccc(F)c(F)c1 [Analogue 10, 3,4-Difluoro-N-(5-nitrothiazol-2-yl)benzamide] | 5.3 (≈ 1.51 µg/mL) | 1.8 (≈ 0.513 µg/mL) |
| O=C(Nc1ncc([N+](=O)[O-])s1)c1ccc(F)cc1F [Analogue 9, 2,4-Difluoro-N-(5-nitrothiazol-2-yl)benzamide] | 7 (≈ 2 µg/mL) | 0.4 (≈ 0.114 µg/mL) |
| O=C(Nc1ncc([N+](=O)[O-])s1)c1ccc(F)cc1C(F)(F)F [Analogue 35, 4-Fluoro-N-(5-nitrothiazol-2-yl)-2-(trifluoromethyl)benzamide] | 23.9 (≈ 8.01 µg/mL) | 3.4 (≈ 1.14 µg/mL) |
| O=C(Nc1ncc([N+](=O)[O-])s1)c1cc(F)c(F)c(F)c1 [Analogue 13, 3,4,5-Trifluoro-N-(5-nitrothiazol-2-yl)benzamide] | 4.9 (≈ 1.49 µg/mL) | 1.2 (≈ 0.364 µg/mL) |
| O=C(C=Cc1ccccc1)Nc1ncc([N+](=O)[O-])s1 [Analogue 54, N-(5-Nitrothiazol-2-yl)cinnamamide] | 2.7 (≈ 0.743 µg/mL) | 0.3 (≈ 0.0826 µg/mL) |
| O=C(Nc1ncc([N+](=O)[O-])s1)c1cccc(F)c1 [Analogue 7, 3-Fluoro-N-(5-nitrothiazol-2-yl)benzamide] | 11.2 (≈ 2.99 µg/mL) | 0.9 (≈ 0.241 µg/mL) |
| O=C(Cc1ccccc1)Nc1ncc([N+](=O)[O-])s1 [Analogue 43, N-(5-Nitrothiazol-2-yl)-2-phenylacetamide] | 11.4 (≈ 3 µg/mL) | 0.7 (≈ 0.184 µg/mL) |
| O=C(Nc1ncc([N+](=O)[O-])s1)c1ccc(-c2cccc(F)c2)o1 [Analogue 67, 5-(3-Fluorophenyl)-N-(5-nitrothiazol-2-yl)furan-2-carboxamide] | 24 (≈ 8 µg/mL) | 1.5 (≈ 0.5 µg/mL) |
| O=C(Nc1ncc([N+](=O)[O-])s1)c1cc2ccccc2o1 [Analogue 72, N-(5-Nitrothiazol-2-yl)benzofuran-2-carboxamide] | 111 (≈ 32 µg/mL) | 0.6 (≈ 0.174 µg/mL) |
| O=C(Nc1ncc([N+](=O)[O-])s1)c1cc(Br)c(Br)o1 [Analogue 63, 4,5-Dibromo-N-(5-nitrothiazol-2-yl)furan-2-carboxamide] | 20.2 (≈ 8.02 µg/mL) | 2.8 (≈ 1.11 µg/mL) |
| O=C(Nc1ncc([N+](=O)[O-])s1)c1ccc(-c2ccoc2)s1 [Analogue 83, 5-(Furan-3-yl)-N-(5-nitrothiazol-2-yl)thiophene-2-carboxamide] | 12.4 (≈ 3.98 µg/mL) | 7.8 (≈ 2.51 µg/mL) |
| O=C(Nc1ncc([N+](=O)[O-])s1)c1sccc1Cl [Analogue 78, 3-Chloro-N-(5-nitrothiazol-2-yl)thiophene-2-carboxamide] | 20.7 (≈ 6 µg/mL) | 5.2 (≈ 1.51 µg/mL) |
| N#Cc1cccc(C(=O)Nc2ncc([N+](=O)[O-])s2)c1 [Analogue 20, 3-Cyano-N-(5-nitrothiazol-2-yl)benzamide] | 36.5 (≈ 10 µg/mL) | 4.1 (≈ 1.12 µg/mL) |
| O=C(Nc1ncc([N+](=O)[O-])s1)[C@@H]1C[C@H]1c1ccccc1 [Analogue 46, (1R,2R)-N-(5-Nitrothiazol-2-yl)-2-phenylcyclopropanecarboxamide] | 2.6 (≈ 0.752 µg/mL) | 13.8 (≈ 3.99 µg/mL) |
| O=C(Nc1ncc([N+](=O)[O-])s1)c1ccccc1C(F)(F)F [Analogue 22, N-(5-Nitrothiazol-2-yl)-2-(trifluoromethyl)benzamide] | 18.9 (≈ 6 µg/mL) | 1.6 (≈ 0.508 µg/mL) |
| O=C(Nc1ncc([N+](=O)[O-])s1)c1ccc(-c2cccc(Cl)c2)o1 [Analogue 66, 5-(3-Chlorophenyl)-N-(5-nitrothiazol-2-yl)furan-2-carboxamide] | 22.9 (≈ 8.01 µg/mL) | 1.1 (≈ 0.385 µg/mL) |
| O=C(Nc1ncc([N+](=O)[O-])s1)c1cccc([N+](=O)[O-])c1O [Analogue 34, 2-Hydroxy-3-nitro-N-(5-nitrothiazol-2-yl)benzamide] | 103 (≈ 32 µg/mL) | 19.3 (≈ 5.99 µg/mL) |
| O=C(Nc1ncc([N+](=O)[O-])s1)c1cc(F)c(F)c(F)c1F [Analogue 15, 2,3,4,5-Tetrafluoro-N-(5-nitrothiazol-2-yl)benzamide] | 4.7 (≈ 1.51 µg/mL) | 1.2 (≈ 0.385 µg/mL) |
| O=C(Nc1ncc([N+](=O)[O-])s1)c1c(F)c(F)c(F)c(F)c1F [Analogue 16, 2,3,4,5,6-Pentafluoro-N-(5-nitrothiazol-2-yl)benzamide] | – | 7.4 (≈ 2.51 µg/mL) |
